Residues, ends and D or L forms follow the SMILES beside them.
Molecular target: DPP-IV enzyme (Homo sapiens, UniProt P27487)
Test: biochemical

Sequence of DPP-IV enzyme (P27487 whole entry, species assumed): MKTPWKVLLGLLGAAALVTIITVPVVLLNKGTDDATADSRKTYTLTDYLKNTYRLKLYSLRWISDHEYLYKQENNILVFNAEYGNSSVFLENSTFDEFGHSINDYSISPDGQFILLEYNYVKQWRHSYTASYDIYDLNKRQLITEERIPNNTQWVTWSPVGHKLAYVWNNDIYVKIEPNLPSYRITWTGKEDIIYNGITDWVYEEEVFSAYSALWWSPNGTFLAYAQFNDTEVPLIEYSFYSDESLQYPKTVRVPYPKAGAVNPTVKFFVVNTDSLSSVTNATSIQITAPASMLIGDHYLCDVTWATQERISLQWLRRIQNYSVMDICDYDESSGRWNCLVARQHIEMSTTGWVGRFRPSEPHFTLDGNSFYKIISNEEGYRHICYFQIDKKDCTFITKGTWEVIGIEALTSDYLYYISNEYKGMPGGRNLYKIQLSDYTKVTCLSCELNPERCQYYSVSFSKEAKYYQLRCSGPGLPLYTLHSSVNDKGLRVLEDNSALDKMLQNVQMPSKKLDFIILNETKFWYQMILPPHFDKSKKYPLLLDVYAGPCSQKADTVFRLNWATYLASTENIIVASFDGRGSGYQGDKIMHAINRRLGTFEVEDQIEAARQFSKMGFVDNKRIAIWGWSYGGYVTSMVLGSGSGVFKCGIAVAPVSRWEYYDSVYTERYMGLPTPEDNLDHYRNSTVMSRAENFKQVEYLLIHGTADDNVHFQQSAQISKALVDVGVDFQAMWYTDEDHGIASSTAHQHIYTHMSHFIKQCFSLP

Molecule `C[C@@H](O)[C@H](NC(=O)[C@H](CC(N)=O)NC(=O)CNC(=O)[C@H](Cc1ccccc1)NC(=O)[C@@H]1CCCN1)C(=O)N[C@@H](Cc1c[nH]cn1)C(=O)N[C@@H](CC(N)=O)C(=O)N[C@@H](CC(N)=O)C(=O)N[C@@H](Cc1ccccc1)C(=O)N[C@@H](CCCCN)C(=O)O` [D1] (H-PFGNTHNNFK-OH) has an IC50 of 8.51 mM.

Work on `CC[C@H](C)[C@H](N)C(=O)N1CCC[C@H]1C(=O)N[C@@H](Cc1c[nH]cn1)C(=O)N[C@@H](CCC(=O)O)C(=O)N[C@@H](CO)C(=O)N[C@H](C(=O)N[C@@H](CC(=O)O)C(=O)N[C@H](C(=O)N[C@H](C(=O)N[C@@H](CCCCN)C(=O)O)[C@@H](C)CC)C(C)C)C(C)C` [D22] (H-IPHESVDVIK-OH) yielded an IC50 of 2.69 mM.

Work on `CSCC[C@H](NC(=O)[C@H](Cc1c[nH]cn1)NC(=O)[C@H](CC(N)=O)NC(=O)[C@H](CC(N)=O)NC(=O)[C@H](Cc1c[nH]cn1)NC(=O)[C@H](CCCCN)NC(=O)[C@H](CO)NC(=O)[C@H](CC(C)C)NC(=O)[C@H](CC(=O)O)NC(=O)[C@@H]1CCCN1)C(=O)O` [D35] (H-PDLSKHNNHM-OH) yielded an IC50 of 3.88 mM.

`CC(C)[C@H](NC(=O)[C@H](C)NC(=O)[C@H](CCC(=O)O)NC(=O)[C@H](C)NC(=O)[C@@H]1CCCN1C(=O)[C@@H](N)CCC(=O)O)C(=O)NCC(=O)N[C@@H](CC(=O)O)C(=O)N[C@@H](Cc1c[nH]c2ccccc12)C(=O)N[C@@H](CCCNC(=N)N)C(=O)O` [D37] (H-EPAEAVGDWR-OH) was tested, and the IC50 was 0.1 mM.
